In a melting point compilation (Tetko et al.):

Row | Compound | melting point [°C]
1 | CCOCCn1c(N)cc(=O)[nH]c1=O | 257 to 259
2 | Nc1ccn(CC(F)(F)F)n1 | 39 to 41
3 | CCNc1ccc(S(=O)(=O)N(C)C)cc1N | 161 to 163
4 | Cn1cc(C(=O)O)c(-c2cccs2)n1 | 179 to 181
5 | Cc1cc(-c2cc(C(=O)O)c3c(C)noc3n2)c(C)s1 | 256 to 258
6 | Cc1cc(=O)n2nc(N)[nH]c2n1 | 367 to 369
7 | COc1cc(C(=O)CBr)ccc1OC(F)F | 45 to 46
8 | CNC(=O)C(Br)Cc1ccccc1 (centres undefined) | 103 to 105
9 | Cc1c(C(=O)O)cnc2c1c(=O)n(C)c(=O)n2C | 279 to 281
10 | Cn1nc(SCC(=O)O)c(=O)n(C)c1=O | 185 to 187
11 | CCS(=O)(=O)c1ccccc1Oc1ccc(N)cc1 | 124 to 126
12 | O=c1c2ccccc2nnn1CCl | 129 to 133
13 | CCNc1ccc(S(=O)(=O)C(F)(F)F)cc1 | 63 to 65
14 | Sc1nnc(Nc2ccc(Oc3ccccc3)cc2)s1 | 183 to 185
15 | N#CCc1nc(C23CC4CC(CC(C4)C2)C3)cs1 | 57 to 59
16 | Cc1ccc(NS(C)(=O)=O)c(C(=O)O)c1 | 195 to 197
17 | COc1cccc(COc2cccc(Cl)c2C=O)c1 | 64 to 66
18 | CC(=O)CC(=O)Nc1ccc(C)cc1Cl | 89 to 91
19 | Cc1ccc(-c2cncc(C(=O)O)c2)cc1 | 266 to 268
20 | O=C(Cc1ccc(Cl)cc1Cl)c1ccc(F)cc1 | 108 to 110
21 | COC(=O)c1cc(NS(=O)(=O)c2cccs2)cc(NS(=O)(=O)c2cccs2)c1 | 251 to 253

Row | Compound | melting point [°C]
22 | Cc1nc(-c2ccc(NC(=O)OCC(F)(F)F)cc2)cc(=O)[nH]1 | 246 to 248
23 | O=c1[nH]c2ccccc2c(O)c1[N+](=O)[O-] | 209 to 211
24 | NC(=O)c1ccc(CCl)cc1 | 178 to 180
25 | O=C(O)CCc1cccc([N+](=O)[O-])c1 | 111 to 113
26 | CNS(=O)(=O)c1cccc(F)c1 | 58 to 60
27 | O=C(O)COc1ccc(Oc2ccccn2)cc1 | 154 to 156
28 | CS(=O)(=O)c1cc(C(=O)O)cc([N+](=O)[O-])c1 | 229 to 231
29 | Nc1ccc(-c2ccccc2)nn1 | 145 to 147
30 | O=C1c2ccccc2C(=O)N1CC1CO1 (centres undefined) | 98 to 100
31 | O=Cc1ccc(OCC(=O)Nc2ccccc2)cc1 | 125 to 127
32 | Cc1cc(C)c([N+](=O)[O-])c(C)c1C(=O)O | 169 to 171
33 | COc1cc(C(C)=O)ccc1OCC(=O)O | 165 to 167
34 | N#CCc1c[nH]c2cc(F)ccc12 | 52 to 54
35 | Oc1ccc(Cl)cc1-c1cc(-c2ccco2)[nH]n1 | 166 to 168
36 | N#Cc1c(Cl)nc2sccn12 | 174 to 176
37 | O=C(O)c1cnc(COc2ccccc2)s1 | 174 to 176
38 | N#CCc1cc(Cl)ccc1Cl | 92 to 94
39 | Nc1ccnn1Cc1c(Cl)cccc1Cl | 127 to 129
40 | O=C(Cc1ccccn1)c1cccnc1 | 66 to 68
41 | CC(C)(C)c1ccc(C(=O)C(=O)O)cc1 | 67 to 69
42 | Cc1occc1-c1cc(N)n(CCO)n1 | 128 to 130

Row | Compound | melting point [°C]
43 | NS(=O)(=O)c1cccc(N2C(=O)C=CC2=O)c1 | 220 to 222
44 | N#Cc1ccc(-n2nccc2N)cc1 | 114 to 116
45 | O=C(O)Cn1ncc2ccccc21 | 188 to 190
46 | CS(=O)(=O)Nc1ccc(S(=O)(=O)Cl)c(F)c1 | 149 to 151
47 | COc1cc(-c2cc(C(=O)O)c3ccccc3n2)cc(OC)c1OC | 195 to 197
48 | Cc1cc(F)c(S(=O)(=O)Cl)cc1[N+](=O)[O-] | 64 to 66
49 | Cc1ccc2cc(C(=O)O)c(C)nc2c1 | 197 to 199
50 | NS(=O)(=O)c1ccc(Cl)nc1Cl | 189 to 191
51 | COC(=O)c1cc([N+](=O)[O-])cc([N+](=O)[O-])c1OC | 69 to 71
52 | Cc1cc(NC(=O)c2cccc(F)c2)sc1C(=O)O | 211 to 213
53 | O=C(O)c1ncoc1CCC(F)(F)F | 139 to 141
54 | CC(C)C1NC(=O)c2ccccc2NC1=O (centres undefined) | 259 to 261
55 | CS(=O)(=O)Cc1ccc(S(=O)(=O)Cl)cc1 | 127 to 129
56 | O=Cc1ccc(OCc2cscn2)cc1 | 78 to 80
57 | CC(C)Oc1ccc(CCCO)cc1 | 31 to 33
58 | NC1(c2nnn[nH]2)CCC1 | 254 to 256
59 | COc1cc(N)cc(OC)c1Br | 149 to 151
60 | CC(Cl)C(=O)NCc1ccccc1Cl (centres undefined) | 88 to 90
61 | CC1C(=O)NC(=O)C1C (centres undefined) | 56 to 58
62 | CNc1cc(C(F)(F)F)nc2ccccc12 | 159 to 161
63 | COc1ccc(-c2nnc(S)o2)cc1 | 202 to 204

Row | Compound | melting point [°C]
64 | O=Cc1c[nH]c2cc(F)ccc12 | 176 to 178
65 | CNC(=O)c1cc2ccccc2[nH]1 | 221 to 223
66 | Cc1ccc(/C=C/c2n[nH]c(S)n2)o1 | 275 to 277
67 | Clc1ccc(Cc2nn[nH]n2)cc1Cl | 153 to 155
68 | CCCCCn1cc(C(=O)O)c2ccccc21 | 97 to 99
69 | Cc1nn(-c2ccccc2Cl)c(C(F)F)c1C(=O)O | 204 to 206
70 | Nc1ccc2nc[nH]c(=O)c2c1 | 309 to 311
71 | O=C(CCl)NNC(=O)C1CC1 | 185 to 187
72 | O=c1[nH]c2ccc(NCc3cccc(Cl)c3)cc2[nH]1 | 217 to 219
73 | CC(=O)Oc1cc(C(=O)O)cc(OC(C)=O)c1OC(C)=O | 163 to 165
74 | Cc1cc(C(=O)CCl)c(C)n1-c1ccccc1F | 86 to 90
75 | COc1cc(C#N)cc(Cl)c1OC(C)C | 84 to 86
76 | Nc1cc(-c2ccccc2Br)no1 | 74 to 76
77 | CNC(C(=O)O)c1cc(F)c(F)c(F)c1 (centres undefined) | 247 to 249
78 | Cc1noc2ncc(S(=O)(=O)Cl)cc12 | 110 to 112
79 | COC(=O)c1cc2ccc(OCc3ccccc3)cc2[nH]1 | 136 to 138
80 | Fc1ccc(-n2c(S)nnc2-c2ccncc2)cc1 | 165 to 175
81 | N#Cc1cc2ccccc2nc1Cl | 163 to 165

The next lines start with the values.

Row | melting point [°C] | Compound
82 | 160 to 162 | N#CCC(=O)Nc1ccccn1
83 | 229 to 231 | CC(=O)Nc1cncc(C(=O)NN)c1
84 | 217 to 219 | O=C(O)c1cnc(NC2CC2)s1
85 | 74 to 76 | Cc1ccc(C#N)c(N2CCCC2)n1
86 | 282 to 284 | Cc1nc2c(C(N)=O)cnn2c(C)c1CCC(=O)O
87 | 184 to 186 | O=C(O)c1ccc(O)c2ccccc12
88 | 85 to 87 | NCC(O)C1CCCCC1 (centres undefined)
89 | 116 to 118 | Oc1cccc2c1NCCC2
90 | 91 to 93 | C1CCc2nnc(C3CCCN3)n2CC1 (centres undefined)
91 | 68 to 72 | Cc1sc2nc(CN3CCCC3)nc(Cl)c2c1C
92 | 213 to 215 | O=C1OCCc2cnc3ccnn3c21
93 | 79 to 81 | O=C(O)CSc1cccc(Br)c1
94 | 89 to 91 | CC(=O)c1cc2cc(C)c(C)cc2o1
95 | 191 to 193 | O=C(O)c1ccc(OC2CCC2)cc1
96 | 174 to 176 | Cc1ncncc1C(=O)O
97 | 217 to 219 | CC(=O)Nc1sc(C)c(C)c1C(=O)O
98 | 164 to 166 | NC(=S)N1CCN(c2ccccn2)CC1
99 | 118 to 120 | O=C(CCl)N1CCc2ccccc21
100 | 149 to 151 | NC(=O)Nc1cccc(F)c1C(=O)O
101 | 159 to 161 | NC(CCN1CCOCC1)=NO
102 | 208 to 210 | O=C(O)c1cnc(-c2ccsc2)s1

Row | melting point [°C] | Compound
103 | 141 to 143 | NC(=O)C=C1CCCC1
104 | 132 to 134 | N#Cc1cccc(NC(=O)c2ccccc2F)c1
105 | 117 to 119 | Nc1cccc(S(=O)(=O)C2CCCC2)c1
106 | 135 to 137 | COCCNC(=O)Nc1ccc(N)cc1
107 | 124 to 126 | Cc1ccc(N2CCCC2)c(C(=O)O)c1
108 | 127 to 129 | NC(=S)NCCc1cccs1
109 | 89 to 91 | CC=C(C)C=CC(=O)O
110 | 128 to 130 | O=C(O)C1CCCCN1C(=O)c1ccccc1 (centres undefined)
111 | 169 to 171 | O=C(O)c1c(C(F)(F)F)noc1C(F)(F)F
112 | 109 to 111 | COC(=O)c1sc(-c2ccccc2Cl)cc1N
113 | 156 to 158 | N#Cc1c2c(n(-c3ccccc3)c1NC(=O)CCl)CCCC2
114 | 114 to 116 | COc1ncccc1C(N)=S
115 | 183 to 185 | O=C(O)C=Cc1cc[nH]c1
116 | 88 to 90 | CCOc1ccc(C2(O)CCCC2)cc1
117 | 109 to 111 | CNC(=O)c1c(C)cccc1N
118 | 54 to 56 | CC(C)Cn1cnnc1C1CCCN1 (centres undefined)
119 | 190 to 192 | Nc1ccc2c(c1)CC(=O)N2
120 | 111 to 113 | CCOC(=O)c1nn(-c2ccccc2)cc1/C=N/O
121 | 121 to 123 | Clc1nccc(N2CCCC2)n1
122 | 142 to 144 | O=C(O)COc1ccc(F)cc1Br
123 | 77 to 79 | O=C(CC(=O)NCC1CCCO1)NCC1CCCO1 (centres undefined)

Row | melting point [°C] | Compound
124 | 148 to 150 | O=C1CN(C2CCCC2)C(=O)N1
125 | 163 to 165 | C1CNc2nn[nH]c2C1
126 | 114 to 116 | Cc1cc(C(=O)O)c(C)s1
127 | 114 to 116 | COc1ccc2c(c1)C(=O)CCN2
128 | 171 to 175 | O=C(O)CNC(=O)c1ccc2ccccc2c1
129 | 79 to 81 | O=[N+]([O-])c1cccc2c1CCCN2
130 | 156 to 158 | O=C(O)c1ccccc1NCc1ccco1
131 | 110 to 114 | Nc1sc2c(c1C(=O)c1cccc(F)c1)CCCC2
132 | 72 to 73 | Cc1n[nH]c(C)c1S(=O)(=O)N1CCCCC1
133 | 69 to 71 | O=[N+]([O-])c1cccc2c1NCCC2
134 | 178 to 180 | NC(=O)c1ccc(NC(=O)OCC(F)(F)F)cc1Cl
135 | 172 to 174 | Cc1cnn(CC(=O)O)c1
136 | 284 to 286 | Cc1nnc(-c2ccc(C(=O)O)cc2)o1
137 | 58 to 60 | O=C1CC(C(=O)O)C1
138 | 215 to 217 | O=C(O)Cc1c[nH]c2ncccc12
139 | 127 to 129 | Sc1nnnn1C1CC1
140 | 166 to 168 | COC(=O)c1ccc2nnn(O)c2c1
141 | 173 to 175 | COc1cc(C=O)ccc1Oc1ccc(S(=O)(=O)N2CCCCC2)cc1[N+](=O)[O-]
142 | 125 to 127 | CC1CN(C(=O)CC#N)CC(C)O1 (centres undefined)
143 | 171 to 173 | Cc1cc(C(=O)O)sc1Br
144 | 187 to 189 | Cc1cn(C2CC(O)C(CO)O2)c(=O)[nH]c1=O (centres undefined)
